Assay results reported in patent publication US8980917B2, “Methods for treating or preventing brain infections” (The Johns Hopkins University, priority 2008, dated 2015).
Entries after “also recorded” stand apart in the source; their conditions may differ. Read-outs that look alike come from different tables or passages of the source.

What was measured:
HBMEC [1] = test: E. coli K1 binding and invasion assays in human BMEC (HBMEC); assay type: cell-based; conditions: for E. coli K1 invasion of HBMEC: strain RS218, HBMEC pretreated 30 mins, compared to vehicle control (DMSO); for E. coli K1 invasion of human BMEC monolayers: inhibitors of cPLA2α, Rho kinase, Rac1 and PKC
Method: E. coli strain RS218 was grown overnight in BHI broth in the presence of streptomycin (50 μg/ml). Bacteria were resuspended in experimental medium [M199-HamF12 (1:1) containing 5% heat-inactivated fetal bovine serum, 2 mM glutamine, and 1 mM pyruvate] and added in a multiplicity of infection (MOI) of 100:1 to HBMEC grown in collagen-coated 24-well plates at 37° C. in 5% CO2 incubator for 90 min for binding assay as described previously (9, 10, 14, 28). HBMEC were washed four times with PBS to remove unbound bacteria, lysed in 0.025% Triton X-100 and plated for determinations of CFUs. The results were calculated as a percent of the initial inoculum and expressed as percent relative binding compared to percent binding of RS218 in the presence of vehicle control (DMSO). Each set was run in triplicates.
The HBMEC invasion assay with gentamicin treatment was performed to determine the number of viable intracellular bacteria recovered from the infected HBMEC, as previously described (9, 10, 14, 28). E. coli K1 strain RS218 was added to HBMEC as described above for binding assay. HBMEC were subsequently washed with RPMI 1640 and incubated with experimental media containing gentamicin (100 μg/ml) for 1 h to kill extracellular bacteria. The cells were washed again with PBS and lysed in 0.025% Triton X-100. The released intracellular bacteria were enumerated by plating on sheep blood agar plates. The results were calculated as a percent of the initial inoculum and expressed as percent relative invasion compared to percent invasion of RS218 in the presence of vehicle control (DMSO). Each set was run in triplicates.
To examine the effects of inhibitors and antagonists on E. coli K1 binding to and invasion of HBMEC, HBMEC were pretreated with inhibitors or antagonists for 30 mins before addition of E. coli, and then processed for binding and invasion assays as described above.
E. coli strain RS218 (O18:K1:H7), a cerebrospinal fluid isolate from a neonate with meningitis, was grown overnight in brain heart infusion (BHI) broth (Difco Laboratories, Detroit, Mich.). Bacteria were resuspended in experimental medium [M199-HamF12 (1:1) containing 5% heat-inactivated fetal bovine serum, 2 mM glutamine, and 1 mM pyruvate] and added in a multiplicity of infection (MOI) of 100:1 to BMECs grown in collagen-coated 24-well plates at 37° C. in 5% CO2 incubator for 90 min for binding assay, as previously described^11. BMECs were washed four times with PBS to remove unbound bacteria, lysed in 0.025% Triton X-100 and plated for determinations of CFUs. The results were calculated as a percent of the initial inoculum and expressed as percent relative binding compared to percent binding of RS218 in the presence of vehicle control (DMSO). Each set was run in triplicates.
The BMEC invasion assay with gentamicin treatment^11 was performed to determine the number of viable intracellular bacteria recovered from the infected BMECs. E. coli K1 strain RS218 was added to BMEC as described above for binding assay. BMECs were subsequently washed with RPMI 1640 and incubated with experimental media containing gentamicin (100 μg/ml) for 1 h to kill extracellular bacteria. The cells were washed again with PBS, lysed in 0.025% Triton X-100, and the released intracellular bacteria were enumerated by plating on sheep blood agar plates. The results were calculated as a percent of the initial inoculum and expressed as percent relative invasion compared to percent invasion of RS218 in the presence of vehicle control (DMSO). Each set was run in triplicates.
E. coli. Human BMEC association and invasion assays were carried out as described previously (15). Briefly, for association assays, confluent human BMEC in 24-well tissue culture plates were incubated with 10^7 CFU of E. coli at a multiplicity of infection of 100 for 90 minutes at 37° C. […]

PKC = test: Activation of PKC and other signaling molecules in response to microbes in human BMEC; assay type: cell-based; conditions: response to type III GBS and E. coli K1 in human BMEC monolayers
From the text: We have previously shown that RhoGTPases and PKC contribute to type III GBS and E. coli K1 invasion of BMEC monolayers (1-3), and our next studies were to examine whether cPLA2α activations are related to RhoGTPases and PKC in type III GBS and E. coli K1 invasion of human BMEC monolayers (e.g., up- and down-stream of each other) by using inhibitors of cPLA2α (AACOCF3), Rho kinase (Y-27632), Rac1 (NSC-23766) and PKC (calphostin C).

human BMEC = test: Type III GBS binding and invasion assays in human BMEC; assay type: cell-based; conditions: inhibitors of cPLA2α, Rho kinase, Rac1 and PKC
Method: GBS. Logarithmic phase cultures of GBS grown in Todd-Hewitt broth at 37° C. were washed and suspended in tissue culture medium. Approximately 5×10^5 CFUs of GBS were added to confluent human BMEC grown in each well of a 24-well plate (Corning Costar, multiplicity of infection of 5 bacteria/cell). The plates were centrifuged at 800×g for 10 min to promote the contact of GBS to the surface of the human BMEC monolayer, and then they were incubated for 2 hr at 37° C. The monolayers were washed three times with PBS and incubated with medium containing gentamicin (100 μg/ml) and penicillin (5 μg/ml) at 37° for 2 hr to kill extracellular bacteria. The monolayers were washed again, lysed, and viable intracellular bacteria were enumerated by culturing onto sheep blood agar plates. The percent invasion was calculated as (the number of intracellular bacteria divided by the number of bacteria inoculated)×100. Each assay was run in triplicate and also repeated at least twice. In one set of experiments the total GBS associated with human BMEC were quantified by the above procedure except that the incubation with gentamicin/penicillin was omitted.
Briefly, human BMEC were pretreated with AACOCF3 for 60 min, and then processed for type III GBS and E. coli K1 binding and invasion assays, as described above.
We next examined the effect of montelukast on type III GBS and E. coli K1 invasion of human BMEC by the methods described earlier. Briefly, human BMEC were treated with monelukast for 60 min and then processed for binding and invasion assays with type III GBS strain K79 and E. coli K1 strain RS 218.

HBMEC [2] = conditions: pretreatment with microfilament-disrupting agents; previous experiments; cited from earlier work
[3] = cited from earlier work

O=C(O)C1(c2ccc3c(c2)OC[C@H](Cc2ccc(-c4ccccc4)cc2)[C@H]3O)CCCC1 [CP105696]
E. coli K1 invasion of HBMEC (HBMEC [1]): failed to affect E. coli K1 invasion of human BMEC monolayers; also recorded: failed to exhibit any inhibition of E. coli invasion of HBMEC

CC(C)c1ccc2c(c1)c(SC(C)(C)C)c(CC(C)(C)C(=O)O)n2Cc1ccc(Cl)cc1 [MK886]
E. coli K1 invasion of HBMEC (HBMEC [1]): significantly inhibited E. coli K1 invasion of HBMEC in a dose-dependent manner

CCN(CC)CCCC(C)Nc1nc(C)cc(Nc2ccc3nc(C)cc(N)c3c2)n1 (stereo not drawn) [NSC-23766]
inhibition of other signaling molecules (PKC): did not exhibit any inhibition of other signaling molecules
type III GBS invasion of human BMEC monolayers (human BMEC): inhibited type III GBS and E. coli K1 invasion of human BMEC monolayers in a dose-dependent manner
E. coli K1 invasion of human BMEC monolayers (HBMEC [1]): inhibited type III GBS and E. coli K1 invasion of human BMEC monolayers in a dose-dependent manner

C[C@@H](N)[C@H]1CC[C@H](C(=O)Nc2ccncc2)CC1 [Y-27632]
inhibition of other signaling molecules (PKC): did not exhibit any inhibition of other signaling molecules
type III GBS invasion of human BMEC monolayers (human BMEC): inhibited type III GBS and E. coli K1 invasion of human BMEC monolayers in a dose-dependent manner
E. coli K1 invasion of human BMEC monolayers (HBMEC [1]): inhibited type III GBS and E. coli K1 invasion of human BMEC monolayers in a dose-dependent manner

C=C1[C@@H](C)[C@H]2[C@H](Cc3ccccc3)NC(=O)[C@]23[C@H](OC(C)=O)/C=C/[C@@](C)(O)C(=O)[C@@H](C)C/C=C/[C@H]3[C@@H]1O [cytochalasin D]
E. coli invasion of HBMEC (HBMEC [2]): inhibited

C/C1=C/C(=O)O[C@@H]2C[C@@H](CC[C@H](C)/C=C\C=C\CC1)O[C@@](O)([C@@H]1CSC(=O)N1)C2 [latrunculin A]
E. coli invasion of HBMEC (HBMEC [2]): inhibited

O=C(Nc1cccc2c(=O)cc(-c3nnn[nH]3)oc12)c1ccc(OCCCCc2ccccc2)cc1 [pranlukast]
safety and tolerability in clinical trials ([3]; in vivo): safe and well tolerated

COc1cc(C(=O)NS(=O)(=O)c2ccccc2C)ccc1Cc1cn(C)c2ccc(NC(=O)OC3CCCC3)cc12 [zafirlukast]
safety and tolerability in clinical trials ([3]; developed for asthma): safe and well tolerated
E. coli K1 invasion of HBMEC (HBMEC [1]): effective in inhibiting E. coli invasion of HBMEC in a dose-dependent manner

CC(c1cc2ccccc2s1)N(O)C(N)=O (stereo not drawn) [zileuton, Zileuton]
safety and tolerability in clinical trials ([3]; developed for asthma): safe and well tolerated
E. coli K1 invasion of HBMEC (HBMEC [1]): significantly inhibited E. coli K1 invasion of HBMEC in a dose-dependent manner

calphostin C
inhibition of other signaling molecules (PKC): did not exhibit any inhibition of other signaling molecules
type III GBS invasion of human BMEC monolayers (human BMEC): inhibited type III GBS and E. coli K1 invasion of human BMEC monolayers in a dose-dependent manner
E. coli K1 invasion of human BMEC monolayers (HBMEC [1]): inhibited type III GBS and E. coli K1 invasion of human BMEC monolayers in a dose-dependent manner
